Laboratory results: US20030139609A1, “Aziridinyl quinone antitumor agents based on indoles and cyclopent[b]indoles” (priority 2001, published 2003)
“And” between values parts separate entries of the source, which are not always exact repeats. Equal values may be shown once. Read-outs that look alike come from different tables or passages of the source.

Columns and labels:
600 bp calf thymus DNA = test: DNA reductive alkylation by catalytically reduced aziridinyl quinones; assay type: biochemical; details: for DNA alkylation percentage: catalytic reduction, anaerobic, pH 7.4 tris buffer, 30° C., 24 h, absorbance at 550 nm
Description: DNA Alkylation Screening of Series 1-9. The extent of DNA reductive alkylation was determined by catalytic reduction of the aziridinyl quinones in the presence of 600 bp calf thymus DNA. Oxidative workup afforded DNA colored blue as a result of the aminoquinone chromophore. […] The anaerobic conditions employed for DNA reductive alkylation assays is not meant to mimic the environment of tumor cells. These conditions do permit an accurate assessment of the structural requirements for DNA alkylation by the hydroquinone species. To be sure, agents incapable of akylating DNA under these ideal conditions will not do so in the typical cellular environment.
Alkylation of DNA by Reduced Indoloquinones. To a mixture of 1-2 mg of sonicated (600 bp) calf thymus DNA in 2.0 mL of 0.05 M of pH 7.4 tris buffer and 2 mg of Pd on carbon was added a five-to-one base pair equivalent amount of the indoloquinone dissolved in 0.5 mL of dimethylsulfoxide. The resulting solution was degassed under argon for 30 min., after which the mixture was purged with H2 for 10 min. The solution was then purged with argon for 10 min. and placed in a 30° C. bath for 24 h. The reaction was opened to the air and the catalyst was removed with a Millex-PF […] syringe filter. The filtrate was adjusted to 0.3 M acetate with a 3 M stock solution of pH 5.1 acetate and then diluted with two volumes of ethanol. The mixture was chilled at −20° C. for 12 h and the DNA pellet collected by centrifuging at 12,000 g for 20 min. The pellet was redissolved in water and then precipitated and centrifuged again. The resulting blue or red pellet was suspended in ethanol, centrifuged, and dried. The dried pellet was weighed and dissolved in 1 mL of double distilled water resulting in a clear colored solution with […]max˜550 nm, □˜750 M^−1 cm^−1. This is the chromophore of the aminoquinone resulting from nucleophile-mediated opening of the aziridine ring. Model 2′-chloroethyl aminoquinones for extinction coefficient determination were prepared by treatment of the indoloquinone with HCl. {Skibo, E. B. and Xing, C., Chemistry and DNA Alkylation Reactions of Aziridinyl Quinones: Development of an Efficient Alkylating Agent of the Phosphate Backbone, Biochemistry, 1998, 37, 15199-15213}.

[1] = test system: NCI-H460 non-small-lung cancer cell line; test: NCI In Vitro Cell Line Screening, NSC H460 cell line; assay type: cell-based; details: for Log TGI NSC H460: concentration for total growth inhibition; for GI50 / CC50: Homo sapiens
Source text: Cytotoxic and Cytostatic Screening of Series 1-9.

[2] = test system: National Cancer Institute 60-cell line; test: NCI 60-cell line in vitro screen (average cytotoxicity and cancer specificity); details: for Average Log LC50 60-Cell Line: mean over 60 cell lines, ± value measures cancer specificity
Description: Cytotoxic and Cytostatic Screening of Series 1-9. […] The cytostatic parameters include GI50 and TGI, which are the concentrations of drug required for 50% growth inhibition and total growth inhibition, respectively. The cytotoxic parameter is the LC50, which is the concentration required for 50% cell kill.
4. […] Cancer specificity is measured from the ± value under the “Average Log LC50 60-Cell Line” heading of Table 5. A ± value greater than 2 indicates a greater than 100-fold higher/lower cytotoxicity in some histological cancer types compared to the mean cytotoxicity.
The DT-diaphorase levels in the National Cancer Institute 60-cell line in vitro screen have been determined and correlated with the cytotoxicity of antitumor agents activated by 2-electron reduction. {Fitzsimmons, S. A., Workman, P., Grever, M., Paull, K., Camalier, R., and Lewis, A. D., Reductase Enzyme Expression Across the National Cancer Institute Tumor Cell Line Panel: Correlation with Sensitivity To Mitomycin C and EO9, J. Natl. Cancer Inst., 1996, 88, 259-69}. Sensitive cancers usually include NSC lung and colon cancers (and to a lesser extent CNS, melanoma, and renal cancers) by virtue of their elevated DT-diaphorase levels.

B16 melanoma = test: animal or person; assay type: in vivo; details: for in vivo toxicity (in words) / in vivo antitumor activity (in words): 2, 3 or 5 mg/kg/day; for response vs control in vivo at 2 mg/kg / response vs control in vivo at 3 mg/kg / response vs control in vivo at 5 mg/kg: Mus musculus, B16, 600 h, read-out: In vivo T/C (Treated/Control)
Source text: Shown in Tables 6 and 7 are B16 melanoma syngraft assays {Griswold, D. P., Consideration of the Subcutaneously Implanted B16 Melanoma as a Screening Model for Potential Anticancer Agents, Cancer Chemother Reports, 1972, 3, 315-324} of some members of Series 1-9, as well as related compounds previously reported from this laboratory. {Xing, C. G., Wu, P., Skibo, E. B., and Dorr, R. T., Design of cancer-specific antitumor agents based on aziridlinylcyclopent[b]indoloquinones, J. Med. Chem., 2000, 43, 457-466}. Each agent was evaluated at three doses in C57/bl mice: 2, 3 or 5 mg/kg/day, on days 1, 5, and 9 after subcutaneous tumor implantation of 10^5 cells in the front flank on day 0. “Toxic” means that there was early lethality, or ≧50% lethality prior to any deaths in the control group. The treated over control values (T/C) were measured at day 25 of the study. A T/C value <40% is considered active.
In vivo Evaluation. The B-16 melanoma in C57/bl mice syngraft model was employed to determine in vivo activity. {Griswold, D. P., Consideration of the Subcutaneously Implanted B16 Melanoma as a Screening Model for Potential Anticancer Agents, Cancer Chemother Reports, 1972, 3, 315-324}. Each agent was evaluated at three doses: 2, 3 or 5 mg/kg/day, on days 1, 5, and 9 after subcutaneous tumor implantation of 10^5 cells in the front flank on day 0. “Toxic” means that there was early lethality, or ≧50% lethality prior to any deaths in the control group. The treated over control values (T/C) were measured at day 25 of the study. A T/C value<40% is considered active. […] The control was obtained with drug-free animals.

[3] = NCI-H460, concentration for 50% growth inhibition, read-out: Log GI50 NSC H460 (converted)
[4] = NCI-H460, read-out: Log LC50 NSC H460, concentration for 50% cell kill (converted)
[5] = 5 mg/Kg/Day on days 1, 5, 9, T/C at day 25, <40% active
[6] = 2 mg/Kg/Day on days 1, 5, 9, T/C at day 25, <40% active
[7] = 3 mg/Kg/Day on days 1, 5, 9, T/C at day 25, <40% active
[8] = NCI-H460, read-out: Log GI50 NSC H460 (converted)

6-Aziridinyl-3-(hydroxymethyl)-2-methylcarboxylindol-4,7-dione [Compound 9b]
% of DNA bases reductively activated (600 bp calf thymus DNA): 2% | DNA alkylation percentage (600 bp calf thymus DNA): 2.2% | Log LC50 NSC H460 ([1]; concentration for 50% cell kill): −5.21 and −4.95 | Log GI50 NSC H460 ([1]; concentration for 50% growth inhibition): −5.90 and −5.80 | Log TGI NSC H460 [1]: −5.55 and −5.39 | Average Log LC50 60-Cell Line [2]: −5.20 ± 1.04 and −5.32 ± 1.14 | cytostatic/cytotoxic activity versus histological cancer type (in words) ([2]; text b52, FIG. 4): significant cytotoxic and cytostatic properties

O=C1C=C(N2CC2)C(=O)c2c1[nH]c1c2CCC1O (stereo not shown) [Compound 1a, 7-Aziridinyl-3-hydroxy-1,2,3,4-tetrahydrocyclopent[b]indole-5,8-dione]
DNA alkylation percentage (600 bp calf thymus DNA): 22.5% | GI50 [1, 3]: 0.01 µM | CC50 [1, 4]: 0.295 µM | Log TGI NSC H460 [1]: −6.99 | Average Log LC50 60-Cell Line [2]: −5.66 ± 1.52

CC1=C(N2CC2)C(=O)c2c([nH]c3c2CCC3O)C1=O (stereo not shown) [Compound 2a, 7-Aziridinyl-3-hydroxy-6-methyl-1,2,3,4-tetrahydrocyclopent[b]indole-5,8-dione]
DNA alkylation percentage (600 bp calf thymus DNA): 11.2% | GI50 [1, 3]: 0.01 µM

CC(=O)OC1CCc2c1[nH]c1c2C(=O)C=C(N2CC2)C1=O (stereo not shown) [Compound 3b, 3-Acetoxy-6-aziridinyl-1,2,3,4-tetrahydrocyclopent[b]indole-5,8-dione]
DNA alkylation percentage (600 bp calf thymus DNA): 29% | In vivo T/C (Treated/Control) (B16 melanoma; [5]): Toxic (“Toxic” means ≧ 50% lethality before any control growth deaths)

CC(=O)OC1CCc2c3c(n(C(C)=O)c21)C(=O)C(N1CC1)=CC3=O (stereo not shown) [Compound 3c, 6-Aziridinyl-3-acetoxy-4-acetyl-1,2,3,4-tetrahydrocyclopent[b]indole-5,8-dione]
in vivo toxicity (in words) (B16 melanoma): toxic | response vs control in vivo at 2 mg/kg (B16 melanoma): > 50% | response vs control in vivo at 3 mg/kg (B16 melanoma): > 50% | response vs control in vivo at 5 mg/kg (B16 melanoma): > 50%

CC1=C(N2CC2)C(=O)c2[nH]c3c(c2C1=O)CCC3O (stereo not shown) [Compound 4a]
DNA alkylation percentage (600 bp calf thymus DNA): 10% | GI50 [1, 3]: 0.01 µM | CC50 [1, 4]: 100 µM | Log TGI NSC H460 [1]: −6.97 | in vivo toxicity (in words) (B16 melanoma): without any toxicity | response vs control in vivo at 2 mg/kg (B16 melanoma; [6]): 75% | response vs control in vivo at 3 mg/kg (B16 melanoma; [7]): 45%

O=C1C=C(N2CC2)C(=O)c2c1[nH]c(CO)c2CO [Compound 6a, 5-Aziridinyl-2,3-di(hydroxymethyl)indole-4,7-dione]
DNA alkylation percentage (600 bp calf thymus DNA): 16.7% | In vivo T/C (Treated/Control) (B16 melanoma; [6]): Toxic (“Toxic” means ≧ 50% lethality before any control growth deaths) | In vivo T/C (Treated/Control) (B16 melanoma; [7]): Toxic (“Toxic” means ≧ 50% lethality before any control growth deaths) | In vivo T/C (Treated/Control) (B16 melanoma; [5]): Toxic (“Toxic” means ≧ 50% lethality before any control growth deaths)

CCOC(=O)c1[nH]c2c(c1CO)C(=O)C(N1CC1)=CC2=O [Compound 6c, 5-Aziridinyl-2-ethylcarboxyl-3-(hydroxymethyl)indole-4,7-dione]
GI50 [1, 8]: 0.01 µM | CC50 [1, 4]: 0.631 µM | CC50 ([1]; NCI-H460, read-out: −log LC50 value, H460 cell line (converted)): 0.631 µM | Log TGI NSC H460 [1]: −7 and −6.95 | Average Log LC50 60-Cell Line [2]: −5.79 ± 1.98

CC(=O)OCc1[nH]c2c(c1COC(C)=O)C(=O)C(N1CC1)=CC2=O [Compound 6e, 5-Aziridinyl-2,3-di(acetoxymethyl)indole-4,7-dione]
DNA alkylation (in words) (600 bp calf thymus DNA): high DNA alkylation percentages | DNA alkylation percentage (600 bp calf thymus DNA): 43%

CCOC(=O)c1[nH]c2c(c1CO)C(=O)C(N1CC1)=C(C)C2=O [Compound 7b, 5-Aziridinyl-2-ethylcarboxyl-3-hydroxymethyl-6-methylindole-4,7-dione]
GI50 [1, 8]: 0.01 µM | Log TGI NSC H460 [1]: −7.99 and −7.96 | Average Log LC50 60-Cell Line [2]: −5.69 ± 2.31 and −5.75 ± 2.25

CC1=C(N2CC2)C(=O)c2[nH]c(CO)c(CO)c2C1=O [Compound 8a, 6-Aziridinyl-2,3-di(hydroxymethyl)-5-methylindole-4,7-dione]
DNA alkylation percentage (600 bp calf thymus DNA): 4% | In vivo T/C (Treated/Control) (B16 melanoma; [7]): Toxic (“Toxic” means ≧ 50% lethality before any control growth deaths) | In vivo T/C (Treated/Control) (B16 melanoma; [5]): Toxic (“Toxic” means ≧ 50% lethality before any control growth deaths) | response vs control in vivo at 2 mg/kg (B16 melanoma; [6]): 54%

COC1CCc2c1[nH]c1c2C(=O)C(C)=C(N2CC2)C1=O (stereo not shown) [reference compound]
in vivo toxicity (in words) (B16 melanoma): toxicity only seen at the highest dose

CC1=C(N2CC2)C(=O)c2[nH]c(C)c(C)c2C1=O [reference compound]
response vs control in vivo at 2 mg/kg (B16 melanoma): 22% | response vs control in vivo at 3 mg/kg (B16 melanoma): > 50% | response vs control in vivo at 5 mg/kg (B16 melanoma): > 50%

CC1=C(N2CC2)C(=O)c2c([nH]c(C)c2C)C1=O [reference compound]
In vivo T/C (Treated/Control) (B16 melanoma; [5]): Toxic (“Toxic” means ≧ 50% lethality before any control growth deaths) | response vs control in vivo at 2 mg/kg (B16 melanoma; [6]): 10% | response vs control in vivo at 3 mg/kg (B16 melanoma; [7]): 60%

CC1=C(N2CC2)C(=O)c2[nH]c(CO)c(C)c2C1=O [reference compound]
in vivo antitumor activity (in words) (B16 melanoma): antitumor activity is retained | in vivo toxicity (in words) (B16 melanoma): without much toxicity | response vs control in vivo at 2 mg/kg (B16 melanoma; [6]): 61% | response vs control in vivo at 3 mg/kg (B16 melanoma; [7]): 37% | response vs control in vivo at 5 mg/kg (B16 melanoma; [5]): 34%

CC(=O)OCc1[nH]c2c(c1C)C(=O)C(C)=C(N1CC1)C2=O [reference compound]
in vivo antitumor activity (in words) (B16 melanoma): inactive at all doses

CC(=O)OCc1[nH]c2c(c1C)C(=O)C(N1CC1)=C(C)C2=O [reference compound]
In vivo T/C (Treated/Control) (B16 melanoma; [7]): Toxic (“Toxic” means ≧ 50% lethality before any control growth deaths) | In vivo T/C (Treated/Control) (B16 melanoma; [5]): Toxic (“Toxic” means ≧ 50% lethality before any control growth deaths) | response vs control in vivo at 2 mg/kg (B16 melanoma; [6]): 47%
